Experimental data as given in patent US20260345641A1, “COMPOSITIONS AND USES THEREOF” (Algorae Pharmaceuticals Ltd, priority 2023, published 2026).

System: SH-S5Y5 neuroblastoma cells
Experiment: Cell viability (MTT) in response to Aβ, in vitro model of Alzheimer's disease
Assay type: cell-based
Settings: 20 μM Aβ, 24 h
Description: The SH-S5Y5 neuroblastoma cell line was used for pre-clinical analysis. The SH-S5Y5 cell line is commonly used as a model for neurodegenerative disorders as the cells can be converted to various types of functional neurons by the addition of specific compounds (see, e.g., Xicoy et al., 2017, Molecular Neurodegeneration, 12: 10). In addition, the SH-S5Y5 cell line has been used widely in experimental neurological studies, including analysis of neuronal differentiation, metabolism, and function related to neurodegenerative processes, neurotoxicity and neuroprotection (see, e.g., Datki et al., 2003, Brain Research Bulletin, 62(3): 22-229; and Xie et al., 2010, Chinese Medical Journal, 123(8): 1086-1092).
100 μL MTT reagent was added to each well (final concentration 0.5 mg/mL). Cells were then incubated at 37 °C, 5% CO2 for 4 hours. Solubilization buffer (100 μL) was then added to each well and further incubated at 37 °C, 5% CO2 for 24 hours. Absorbance was then measured by spectrophotometer at 550-600 nm and background corrected at 650 nm.
Amyloid-β (Aβ; 1 mg) was dissolved in 2 mL of 1,1,1,3,3,3-hexafluoro-2-propanol (HFIP). An additional 200 μL of HFIP was then added due to volatility. The Aβ was sealed with parafilm and vortexed for 30 seconds before aliquoting at 100 μL per 1.5 mL tube. HFIP was then evaporated in fume hood for 8 hours. Tubes were then sealed with lid and parafilm and stored at −80 °C. Prior to use, Aβ was reconstituted in DMSO to a final volume of 10% v/v for 10-15 min at RT and vortexed every 3-5 min. F-12 medium was then added to a final volume of 90% v/v. Aβ was then stored at 4 °C for 24 hours and vortexed before use.
Cells were seeded in 96-well microplates and incubated 37 °C, 5% CO2 for 24 hours.

COc1cc2c(cc1OC)C(=O)C(CC1CCN(Cc3ccccc3)CC1)C2 (centres unmarked) [Donepezil]
Cell viability as measured by MTT (Donepezil 2.5 μM): −0.036 | Cell viability as measured by MTT (Donepezil 5 μM): −0.021 | Cell viability as measured by MTT (Donepezil 10 μM): 0.021 | Cell viability as measured by MTT (Donepezil 20 μM): −0.011 | Cell viability as measured by MTT (Donepezil 30 μM): −0.013
